Patent publication US7781420B2, “Use of clodronic acid for treatment podotrochlosis” (Omnimedic GbR, priority 2005, dated 2010)

Experiments:
[1] = tested on: horses who suffer from podotrochlosis; assay: treatment of podotrochlosis with associated osteoporosis in horses by two to five intramuscular injections; assay type: in vivo, horse; conditions: for therapeutic success in the treatment of podotrochlosis with associated osteoporosis: intramuscular injections
Experimental: To achieve the desired therapeutic success or else prophylactic success, a dosage regimen in which the pharmaceutical is administered by two to five intramuscular injections within a period of up to several days, such as approximately 3 consecutive days, but preferably within one day, must be adhered to. Here, the administration of the pharmaceutical may be effected in a dosage of, per injection, 0.125-2.5 mg, preferably 0.25-1 mg, particularly preferably approximately 0.6 mg of active ingredient/kg body weight. For a horse with a weight of 500 kg, a total dose of 250-2500 mg, preferably 400-1500 mg, especially preferably approximately 800 to 1000 mg of active ingredient, distributed over 2 to 5 injections, preferably 3 injections, is aimed at. With a horse with a weight of 500 kg, it is therefore especially preferable to administer 900 mg of active ingredient, divided over 3 injections of 300 mg each, within one day. The pharmaceutical is injected intramuscularly, preferably into the neck, chest and gluteal muscles of the horse. In the case of 3 injections, it is preferred to administer two injections into the neck muscles (on the left and right side), especially preferably approximately one hand's width under the crest and approximately one hand's width above the scapula, and one injection into the breast muscles. The 2 to 5 injections are expediently given directly one after the other.
After approximately 14 days, a pronounced improvement of the clinical symptoms is observed in nearly all horses. After approximately 4-6 weeks, the clinical picture has stabilized and established such that the therapeutic success can be defined. After approximately 10 to 14 months, the clinical symptoms will, as a rule, deteriorate. The treatment may then be repeated once or more than once, with equally good success. In this manner, the treated horses can be kept free from lameness over several years.
For example, the therapeutic success in a gelding who had suffered from podotrochlosis and who had not been able to be ridden, let alone used as a sports horses for about 3 years was so good after employing the pharmaceutical described in accordance with the invention that the gelding could afterwards be used intensively and successfully for 6 years as a showjumper.

podotrochlosis = conditions: in vivo; cited from earlier work

| Compound | side effects ([1]; at least 350 horses pretreated with conventional therapies without success) | time until pronounced improvement of the clinical symptoms is observed in nearly all horses ([1]; horses, after treatment) | time until the clinical picture has stabilized and established ([1]; horses, after treatment) | therapeutic success in the treatment of podotrochlosis with associated osteoporosis ([1]; horses) | therapeutic success in the treatment of podotrochlosis with associated osteoporosis ([1]; horses, listed as pharmaceutical described in accordance with the invention) | freedom from lameness ([1]; many of the treated horses, regular use of the pharmaceutical) | time used intensively and successfully as a showjumper after treatment ([1]; single gelding, not able to be ridden for about 3 years before treatment) [years] | effect on podotrochlosis (podotrochlosis) | side effects (podotrochlosis) |
| --- | --- | --- | --- | --- | --- | --- | --- | --- | --- |
| O=P(O)(O)C(Cl)(Cl)P(=O)(O)O [clodronic acid, (dichloromethylene)bis(phosphonic acid)] | without suffering side effects | approximately 14 days | 4-6 weeks | outstanding therapeutic successes | successful therapy | free from lameness for several years | 6 | – | – |
| O=P(O)(O)C(Sc1ccc(Cl)cc1)P(=O)(O)O [tiludronate] | – | – | – | – | – | – | – | healing effect | substantial side effects such as colic |
